Results from patent US9096624B2 (OSI Pharmaceuticals, LLC, priority 2009, dated 2015).

What was measured:
[1] = biological target: T1, FAK (Homo sapiens, UniProt Q05397); experiment: biochemical
[2] = biological target: T1, FAK; experiment: Cell-based capture ELISA for inhibition of FAK autophosphorylation [pY397] in MiaPaCa2 cells
Description: Cell-Based Assays for Inhibition of FAK Autophosphorylation: MiaPaCa2 and U87MG
ELISA kit from Invitrogen (KHO0441).
Reagents Provided in Biosource FAK [pY397]
The cells were then suspended in cell assay medium.

[3] = MIA-PaCa2 cells, + 50% mouse plasma (Table 3), read-out: Mean FAK Cell Mechanistic IC50 + 50% mP MIA-PaCa2
[4] = MIA-PaCa2 cells, + 50% mouse plasma (Table 2), read-out: Mean FAK Cell Mechanistic IC50 + 50% mP MIA-PaCa2
[5] = MIA-PaCa2 cells on fibronectin, 2 h, no plasma, read-out: Mean FAK Cell Mechanistic IC50 MIA-PaCa2
[6] = MIA-PaCa2 cells, + 50% human plasma, read-out: Mean FAK Cell Mechanistic IC50 + 50% hP MIA-PaCa2

T1 sequence (Q05397 whole entry): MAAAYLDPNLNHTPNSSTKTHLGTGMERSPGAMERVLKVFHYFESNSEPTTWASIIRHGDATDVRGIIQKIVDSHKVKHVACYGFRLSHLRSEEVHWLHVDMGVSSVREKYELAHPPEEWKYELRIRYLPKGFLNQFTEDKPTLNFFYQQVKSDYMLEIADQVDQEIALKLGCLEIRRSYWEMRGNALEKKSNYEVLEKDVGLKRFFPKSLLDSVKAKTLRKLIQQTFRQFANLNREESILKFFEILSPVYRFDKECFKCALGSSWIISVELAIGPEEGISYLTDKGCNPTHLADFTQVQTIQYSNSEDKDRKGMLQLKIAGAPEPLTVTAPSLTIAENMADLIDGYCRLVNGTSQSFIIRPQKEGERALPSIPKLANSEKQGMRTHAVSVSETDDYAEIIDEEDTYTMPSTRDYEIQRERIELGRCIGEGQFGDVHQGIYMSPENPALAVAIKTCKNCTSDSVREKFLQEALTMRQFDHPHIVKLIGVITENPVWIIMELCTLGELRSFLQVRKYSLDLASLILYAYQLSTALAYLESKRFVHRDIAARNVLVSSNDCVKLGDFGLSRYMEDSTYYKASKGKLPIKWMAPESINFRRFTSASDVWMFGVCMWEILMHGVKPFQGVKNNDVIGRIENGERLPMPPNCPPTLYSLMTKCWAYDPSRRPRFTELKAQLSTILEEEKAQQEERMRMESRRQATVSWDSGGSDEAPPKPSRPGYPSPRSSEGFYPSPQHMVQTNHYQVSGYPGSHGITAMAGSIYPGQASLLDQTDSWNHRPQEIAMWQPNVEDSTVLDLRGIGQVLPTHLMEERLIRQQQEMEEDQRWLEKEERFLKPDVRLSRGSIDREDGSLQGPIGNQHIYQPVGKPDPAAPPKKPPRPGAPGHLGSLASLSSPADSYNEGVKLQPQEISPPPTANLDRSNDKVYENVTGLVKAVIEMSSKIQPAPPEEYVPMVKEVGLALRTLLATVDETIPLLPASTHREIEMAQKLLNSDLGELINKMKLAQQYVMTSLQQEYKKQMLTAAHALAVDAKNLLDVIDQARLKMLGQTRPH

CCOP(=O)(OCC)C1CCC(c2ccc(Nc3nc(Nc4ccccc4OC)ncc3C(F)(F)F)c3c2CN(C)C3=O)CC1 (mixture of isomers) [Example 193, Diethyl {4-[7-({2-[(2-methoxyphenyl)amino]-5-(trifluoromethyl)pyrimidin-4-yl}amino)-2-methyl-1-oxo-2,3-dihydro-1H-isoindol-4-yl]cyclohexyl}phosphonate]
IC50 [1]: < 1000 nM | IC50 [2, 3]: < 1000 nM

CCOP(=O)(Cc1ccc(Nc2ncc(C(F)(F)F)c(Nc3ccc([C@H]4CC[C@H](O)CC4)c4c3C(=O)N(C)C4)n2)cc1)OCC (stereo in doubt) [Example 92, Diethyl (4-{[4-{[7-(trans-4-hydroxycyclohexyl)-2-methyl-3-oxo-2,3-dihydro-1H-isoindol-4-yl]amino}-5-(trifluoromethyl)pyrimidin-2-yl]amino}benzyl)phosphonate]
IC50 [1]: < 1000 nM | IC50 [2, 4]: < 1000 nM

CCOP(=O)(Cc1ccccc1Nc1ncc(C(F)(F)F)c(NCc2cccnc2N(C)S(C)(=O)=O)n1)OCC [Example 3, Diethyl [2-({4-[({2-[methyl(methylsulfonyl)amino]pyridin-3-yl}methyl)amino]-5-(trifluoromethyl)pyrimidin-2-yl}amino)benzyl]phosphonate]
IC50 [1]: < 1000 nM | IC50 [2, 5]: > 10000 nM | IC50 [2, 6]: > 10000 nM

CC(C)P(=O)(Cc1ccc(Nc2ncc(C(F)(F)F)c(NCc3cccnc3N(C)S(C)(=O)=O)n2)cc1)C(C)C [Example 8, N-[3-({[2-({4-[(Dipropan-2-ylphosphoryl)methyl]phenyl}amino)-5-(trifluoromethyl)pyrimidin-4-yl]amino}methyl)pyridin-2-yl]-N-methylmethanesulfonamide]
IC50 [1]: < 1000 nM | IC50 [2, 5]: < 1000 nM | IC50 [2, 6]: < 1000 nM | IC50 [2, 4]: < 1000 nM

CC(C)P(=O)(Cc1cccc(Nc2ncc(C(F)(F)F)c(NCc3cccnc3N(C)S(C)(=O)=O)n2)c1)C(C)C [Example 9, N-[3-({[2-({3-[(Dipropan-2-ylphosphoryl)methyl]phenyl}amino)-5-(trifluoromethyl)pyrimidin-4-yl]amino}methyl)pyridin-2-yl]-N-methylmethanesulfonamide]
IC50 [1]: < 1000 nM | IC50 [2, 5]: < 1000 nM | IC50 [2, 6]: < 1000 nM | IC50 [2, 4]: < 1000 nM

CCP(=O)(CC)Cc1ccc(Nc2ncc(C(F)(F)F)c(NCc3cccnc3N(C)S(C)(=O)=O)n2)cc1 [Example 10, N-[3-({[2-({4-[(diethylphosphoryl)methyl]phenyl}amino)-5-(trifluoromethyl)pyrimidin-4-yl]amino}methyl)pyridin-2-yl]-N-methylmethanesulfonamide]
IC50 [1]: < 1000 nM | IC50 [2, 5]: < 1000 nM | IC50 [2, 6]: < 1000 nM | IC50 [2, 4]: < 1000 nM

CCP(=O)(CC)Cc1cccc(Nc2ncc(C(F)(F)F)c(NCc3cccnc3N(C)S(C)(=O)=O)n2)c1 [Example 11, N-[3-({[2-({3-[(Diethylphosphoryl)methyl]phenyl}amino)-5-(trifluoromethyl)pyrimidin-4-yl]amino}methyl)pyridin-2-yl]-N-methylmethanesulfonamide]
IC50 [1]: < 1000 nM | IC50 [2, 5]: < 1000 nM | IC50 [2, 6]: < 1000 nM | IC50 [2, 4]: < 1000 nM

CN(c1ncccc1CNc1nc(Nc2ccc(CP(C)(C)=O)cc2)ncc1C(F)(F)F)S(C)(=O)=O [Example 12, N-[3-({[2-({4-[(Dimethylphosphoryl)methyl]phenyl}amino)-5-(trifluoromethyl)pyrimidin-4-yl]amino}methyl)pyridin-2-yl]-N-methylmethanesulfonamide]
IC50 [1]: < 1000 nM | IC50 [2, 5]: 1000 to 10000 nM | IC50 [2, 6]: 1000 to 10000 nM | IC50 [2, 4]: 1000 to 10000 nM

CN(c1ncccc1CNc1nc(Nc2cccc(CP(C)(C)=O)c2)ncc1C(F)(F)F)S(C)(=O)=O [Example 13, N-[3-({[2-({3-[(Dimethylphosphoryl)methyl]phenyl}amino)-5-(trifluoromethyl)pyrimidin-4-yl]amino}methyl)pyridin-2-yl]-N-methylmethanesulfonamide]
IC50 [1]: < 1000 nM | IC50 [2, 5]: < 1000 nM | IC50 [2, 6]: < 1000 nM | IC50 [2, 4]: < 1000 nM

CN(c1ncccc1CNc1nc(Nc2ccc(P(C)(C)=O)cc2)ncc1C(F)(F)F)S(C)(=O)=O [Example 14, N-[3-({[2-{[4-(Dimethylphosphoryl)phenyl]amino}-5-(trifluoromethyl)pyrimidin-4-yl]amino}methyl)pyridin-2-yl]-N-methylmethanesulfonamide]
IC50 [1]: < 1000 nM | IC50 [2, 5]: < 1000 nM | IC50 [2, 6]: < 1000 nM | IC50 [2, 4]: < 1000 nM

CN(c1ncccc1CNc1nc(Nc2cccc(P(C)(C)=O)c2)ncc1C(F)(F)F)S(C)(=O)=O [Example 15, N-[3-({[2-{[3-(Dimethylphosphoryl)phenyl]amino}-5-(trifluoromethyl)pyrimidin-4-yl]amino}methyl)pyridin-2-yl]-N-methylmethanesulfonamide]
IC50 [1]: < 1000 nM | IC50 [2, 5]: < 1000 nM | IC50 [2, 6]: < 1000 nM | IC50 [2, 4]: < 1000 nM

CNC(=O)c1ccccc1Nc1nc(Nc2ccc(CP(C)(C)=O)cc2)ncc1C(F)(F)F [Example 16, 2-{[2-({4-[(Dimethylphosphoryl)methyl]phenyl}amino)-5-(trifluoromethyl)pyrimidin-4-yl]amino}-N-methylbenzamide]
IC50 [1]: < 1000 nM | IC50 [2, 5]: < 1000 nM | IC50 [2, 6]: < 1000 nM | IC50 [2, 4]: < 1000 nM

CCOP(=O)(Cc1ccc(Nc2ncc(C(F)(F)F)c(Nc3ccc(-c4cnn(C5CC(O)C5)c4)c4c3C(=O)N(C)C4)n2)c(OC)c1)OCC (centres unmarked) [Example 74, Diethyl (4-{[4-({7-[1-(3-hydroxycyclobutyl)-1H-pyrazol-4-yl]-2-methyl-3-oxo-2,3-dihydro-1H-isoindol-4-yl}amino)-5-(trifluoromethyl)pyrimidin-2-yl]amino}-3-methoxybenzyl)phosphonate]
IC50 [2, 4]: < 1000 nM

CCOP(=O)(Cc1ccc(Nc2ncc(C(F)(F)F)c(Nc3ccc(-c4cnn(CC(C)(C)O)c4)c4c3C(=O)N(C)C4)n2)c(OC)c1)OCC [Example 98, Diethyl (4-{[4-({7-[1-(2-hydroxy-2-methylpropyl)-1H-pyrazol-4-yl]-2-methyl-3-oxo-2,3-dihydro-1H-isoindol-4-yl}amino)-5-(trifluoromethyl)pyrimidin-2-yl]amino}-3-methoxybenzyl)phosphonate]
IC50 ([2]; read-out: Mean FAK Cell Mechanistic IC50 + 50% mP MIA-PaCa2, MIA-PaCa2 cells, + 50% mouse plasma (Table 3)): < 1000 nM

CCOP(=O)(Cc1ccc(Nc2ncc(C(F)(F)F)c(Nc3ccc(C4=CCN(C(N)=O)CC4)c4c3C(=O)N(C)C4)n2)c(OC)c1)OCC [Example 99, Diethyl (4-{[4-{[7-(1-carbamoyl-1,2,3,6-tetrahydropyridin-4-yl)-2-methyl-3-oxo-2,3-dihydro-1H-isoindol-4-yl]amino}-5-(trifluoromethyl)pyrimidin-2-yl]amino}-3-methoxybenzyl)phosphonate]
IC50 [2, 3]: < 1000 nM

CCOP(=O)(Cc1ccc(Nc2ncc(C(F)(F)F)c(Nc3ccc([C@H]4CC[C@@H](N5CCN(C(C)=O)CC5)CC4)c4c3C(=O)N(C)C4)n2)c(OC)c1)OCC [Example 237, Diethyl (4-{[4-({7-[cis-4-(4-acetylpiperazin-1-yl)cyclohexyl]-2-methyl-3-oxo-2,3-dihydro-1H-isoindol-4-yl}amino)-5-(trifluoromethyl)pyrimidin-2-yl]amino}-3-methoxybenzyl)phosphonate]
IC50 [2, 3]: < 1000 nM

CCOP(=O)(Cc1ccc(Nc2ncc(C(F)(F)F)c(Nc3ccc(C4=CCNCC4)c4c3C(=O)N(C)C4)n2)cc1)OCC [Example 246, Diethyl (4-{[4-{[2-methyl-3-oxo-7-(1,2,3,6-tetrahydropyridin-4-yl)-2,3-dihydro-1H-isoindol-4-yl]amino}-5-(trifluoromethyl)pyrimidin-2-yl]amino}benzyl)phosphonate]
IC50 [1]: < 1000 nM

CCOP(=O)(Cc1ccc(Nc2ncc(C(F)(F)F)c(Nc3ccc(C4=CCN(C)CC4)c4c3C(=O)N(C)C4)n2)cc1)OCC [Example 248, Diethyl (4-{[4-{[2-methyl-7-(1-methyl-1,2,3,6-tetrahydropyridin-4-yl)-3-oxo-2,3-dihydro-1H-isoindol-4-yl]amino}-5-(trifluoromethyl)pyrimidin-2-yl]amino}benzyl)phosphonate]
IC50 [1]: < 1000 nM

CCOP(=O)(O)Cc1ccc(Nc2ncc(C(F)(F)F)c(Nc3ccc(N4CCN(C)CC4)c4c3C(=O)N(C)C4)n2)cc1 [Example 249, Ethyl hydrogen (4-{[4-{[2-methyl-7-(4-methylpiperazin-1-yl)-3-oxo-2,3-dihydro-1H-isoindol-4-yl]amino}-5-(trifluoromethyl)pyrimidin-2-yl]amino}benzyl) phosphonate]
IC50 [1]: < 1000 nM

CCOP(=O)(Cc1ccc(Nc2ncc(C(F)(F)F)c(Nc3ccc(N4CCN(CC(=O)O)CC4)c4c3C(=O)N(C)C4)n2)c(OC)c1)OCC [Example 252, [4-(7-{[2-({4-[(Diethoxyphosphoryl)methyl]-2-methoxyphenyl}amino)-5-(trifluoromethyl)pyrimidin-4-yl]amino}-2-methyl-1-oxo-2,3-dihydro-1H-isoindol-4-yl)piperazin-1-yl]acetic acid]
IC50 [1]: < 1000 nM

CCOP(=O)(O)Cc1ccc(Nc2ncc(C(F)(F)F)c(Nc3ccc(N4CCN(C)CC4)c4c3C(=O)N(C)C4)n2)c(OC)c1 [Example 254, Ethyl hydrogen (3-methoxy-4-{[4-{[2-methyl-7-(4-methylpiperazin-1-yl)-3-oxo-2,3-dihydro-1H-isoindol-4-yl]amino}-5-(trifluoromethyl)pyrimidin-2-yl]amino}benzyl)phosphonate]
IC50 [1]: < 1000 nM

CN1Cc2c(c(Nc3nc(Nc4ccc(CP5(=O)OCCCO5)cc4)ncc3C(F)(F)F)ccc2[C@H]2CC[C@H](O)CC2)C1=O [compound 230]
IC50 [2, 3]: < 1000 nM
